# Tested on: bovine tubulin
# Assay: In vitro tubulin polymerization assay (turbidity at 340 nm)
# Type: biochemical
# Conditions: 10 μM compound, 30 minute data point, vs 1% DMSO control
# Description: Briefly, tubulin polymerization is a kinetic process that is temperature-dependent and requires GTP and was performed as follows. Soluble tubulin dimers polymerize into microtubules upon warming, and polymerization in vitro correlates with an increase in turbidity (measured at 340 nm). Lyophilized bovine tubulin (HTS Tubulin—97% tubulin, <3% MAPs—Cytoskeleton Inc.) was ressuspended in G-PEM buffer (80 mM PIPES pH 7, 1 mM EGTA, 1 mM MgCl2, 1 mM GTP, 5% glycerol) to a final concentration of 3 mg/ml and kept at 4° C. Compounds in 100× stock solutions in DMSO were dotted to pre-warmed 96-well plates (Corning Costar 3696), the plates were transferred to a 37° C. plate reader (SPECTRAmax Plus, Molecular Devices), cold tubulin was added to the wells, and the plates were shaken for mixing. The absorbance at 340 nm was determined at one minute intervals for 30 minutes. Kinetic curves with 30 points each were collected for each compound, and the dynamic range was between 0 and 0.4 OD units. The percentage inhibition values were calculated using the 30 minute data point and based on control samples (treated with 1% DMSO only). The assay is a modified version of the HTS kit sold by Cytoskeleton (1830 S. Acoma St., Denver, Colo.), adapted to maximize throughput and reduce time, without reduction in dynamic range or sensitivity, while retaining the ability to detect compounds that inhibit or enhance tubulin polymerization.
# Tubulin polymerization is a kinetic process that is temperature-dependent and requires GTP. Soluble tubulin dimers polymerize into microtubules upon warming, and polymerization in vitro correlates with an increase in turbidity (measured at 340 nm). Liophilized bovine tubulin (HTS Tubulin—97% tubulin, <3% MAPs—Cytoskeleton Inc.) was ressuspended in G-PEM buffer (80 mM PIPES pH 7, 1 mM EGTA, 1 mM MgCl2, 1 mM GTP, 5% glycerol) to a final concentration of 3 mg/ml and kept at 4° C. Compounds in 100× stock solutions in DMSO were dotted to pre-warmed 96-well plates (Corning Costar 3696), the plates were immediately transferred to a 37° C. plate reader (SPECTRAmax Plus, Molecular Devices), cold tubulin was added to the wells, plates were shaken for mixing, and absorbance at 340 nm was read every minute for 30 minutes. Kinetic curves with 30 points each were collected for each compound, and the dynamic range was between 0 and 0.4 OD units. Percentage inhibition values were calculated using the 30 minute data point, based on control samples (treated with 1% DMSO only). This assay is a modified version of the HTS kit sold by Cytoskeleton, adapted to maximize throughput and reduce time, without reduction in dynamic range or sensitivity, while retaining the ability to detect compounds that inhibit or enhance tubulin polymerization.
row,SMILES,Tubulin Assay: percent inhibition at 10 μM based on 30 minute data
1,"Nc1cc(C(F)(F)F)ccc1-c1nnc(Nc2ccc3c(c2)OCO3)[nH]1 [Compound 124c, [5-(2-Amino-4-trifluoromethyl-phenyl)-4H-[1,2,4]triazol-3-yl]-benzo[1,3]dioxol-5-yl-amine]",61%
2,"c1ccc(-c2cnc(Nc3ccc4c(c3)OCCO4)o2)c(OCc2ccncc2)c1 [Compound 253, (2,3-Dihydro-benzo[1,4]dioxin-6-yl)-{5-[2-(pyridin-4-ylmethoxy)-phenyl]-oxazol-2-yl}-amine]",44%
3,"COc1cc(Nc2ncccc2-c2nnc(Nc3cccc(N)c3)[nH]2)cc(OC)c1 [Compound 60b, N-{5-[2-(3,5-dimethoxy-phenylamino)-pyridin-3-yl]-4H-[1,2,4]triazol-3-yl}-benzene-1,3-diamine]",39%
4,"COc1cc(Nc2ncccc2-c2nc(Nc3ccc4c(c3)OCO4)n(C)n2)cc(OC)c1 [Compound 65, {3-[5-(Benzo[1,3]dioxol-5-ylamino)-1-methyl-1H-[1,2,4]triazol-3-yl]-pyridin-2-yl}-(3,5-dimethoxy-phenyl)-amine]",77%
5,"COc1cccc(-c2nnc(-c3cccnc3NCc3ccncc3)[nH]2)c1 [Compound 94, {3-[5-(3-Methoxy-phenyl)-4H-[1,2,4]triazol-3-yl]-pyridin-2-yl}-pyridin-4-ylmethyl-amine]",43%
6,"c1cncc(CNc2ccccc2-c2cnc(Nc3ccc4c(c3)OCCO4)o2)c1 [Compound 248, (2,3-Dihydro-benzo[1,4]dioxin-6-yl)-(5-{2-[(pyridin-3-ylmethyl)-amino]-phenyl}-oxazol-2-yl)-amine]",79%
7,"COc1cccc(Nc2nnc(-c3cccnc3NCc3cc(OC)cc(OC)c3)[nH]2)c1 [Compound 23, (3,5-Dimethoxy-benzyl)-{3-[5-(3-methoxy-phenylamino)-4H-[1,2,4]triazol-3-yl]-pyridin-2-yl}-amine]",22%
8,"c1cnc(NCc2ccc3c(c2)OCCO3)c(-c2nnc(Nc3ccc4c(c3)OCO4)[nH]2)c1 [Compound 34, {3-[5-(Benzo[1,3]dioxol-5-ylamino)-4H-[1,2,4]triazol-3-yl]-pyridin-2-yl}-(2,3-dihydro-benzo[1,4]dioxin-6-ylmethyl)-amine]",69%
9,"COc1cc(Nc2ncccc2-c2nnc(NS(=O)(=O)c3cccc(OC)c3)o2)cc(OC)c1 [Compound 243, N-{5-[2-(3,5-Dimethoxy-phenylamino)-pyridin-3-yl]-[1,3,4]oxadiazol-2-yl}-3-methoxy-benzenesulfonamide]",55%
10,"COc1cccc(-c2nnc(-c3cccnc3NCCc3c[nH]cn3)[nH]2)c1 [Compound 90, [2-(1H-Imidazol-4-yl)-ethyl]-{3-[5-(3-methoxy-phenyl)-4H-[1,2,4]triazol-3-yl]-pyridin-2-yl}-amine]",25%
11,"COc1cc(Nc2ncccc2-c2nnc(Nc3cccc(NS(=O)(=O)c4ccc5c(c4)OCCO5)c3)[nH]2)cc(OC)c1 [Compound 64, 2,3-Dihydro-benzo[1,4]dioxine-6-sulfonic acid (3-{5-[2-(3,5-dimethoxy-phenylamino)-pyridin-3-yl]-4H-[1,2,4]triazol-3-ylamino}-phenyl)-amide]",29%
12,"COc1cccc(Nc2nc(-c3cccnc3NCc3ccncc3)nn2C)c1 [Compound 69, {3-[5-(3-Methoxy-phenylamino)-1-methyl-1H-[1,2,4]triazol-3-yl]-pyridin-2-yl}-pyridin-4-ylmethyl-amine]",29%
13,"COc1ccc(CNc2nnc(-c3ccccc3NCc3ccncc3)[nH]2)cc1 [Compound 113, (4-Methoxy-benzyl)-(5-{2-[(pyridin-4-ylmethyl)-amino]-phenyl}-4H-[1,2,4]triazol-3-yl)-amine]",24%
14,"c1cnc(NCc2ccc3c(c2)CCO3)c(-c2nnc(Nc3ccc4c(c3)OCO4)[nH]2)c1 [Compound 36, {3-[5-(Benzo[1,3]dioxol-5-ylamino)-4H-[1,2,4]triazol-3-yl]-pyridin-2-yl}-(2,3-dihydro-benzofuran-5-ylmethyl)-amine]",67%
15,"O=[N+]([O-])c1ccccc1-c1nnc(Nc2ccc3c(c2)OCCO3)[nH]1 [Compound 127a, (2,3-Dihydro-benzo[1,4]dioxin-6-yl)-[5-(2-nitro-phenyl)-4H-[1,2,4]triazol-3-yl]-amine]",22%
16,"COc1ccc(Nc2nnc(-c3cccnc3NCc3cccnc3)[nH]2)cc1 [Compound 26, {3-[5-(4-Methoxy-phenylamino)-4H-[1,2,4]triazol-3-yl]-pyridin-2-yl}-pyridin-3-ylmethyl-amine]",20%
17,"c1cnc(NCC2COCCO2)c(-c2nnc(Nc3ccc4c(c3)OCCO4)[nH]2)c1 (stereo not drawn) [Compound 55, {3-[5-(2,3-Dihydro-benzo[1,4]dioxin-6-ylamino)-4H-[1,2,4]triazol-3-yl]-pyridin-2-yl}-[1,4]dioxan-2-ylmethyl-amine]",23%
18,"FC(F)(F)Oc1cccc(-c2nnc(-c3ccccc3NCc3ccc4[nH]cnc4c3)[nH]2)c1 [Compound 144, (1H-Benzoimidazol-5-ylmethyl)-{2-[5-(3-trifluoromethoxy-phenyl)-4H-[1,2,4]triazol-3-yl]-phenyl}-amine]",86%
19,"COc1cccc(Nc2nc(-c3cccnc3Nc3cc(OC)cc(OC)c3)nn2C)c1 [Compound 66, (3,5-Dimethoxy-phenyl)-{3-[5-(3-methoxy-phenylamino)-1-methyl-1H-[1,2,4]triazol-3-yl]-pyridin-2-yl}-amine]",73%
20,"FC(F)(F)c1ccc(-c2nnc(-c3ccccc3NCc3ccc4c(c3)OCCO4)[nH]2)cc1 [Compound 139, (2,3-Dihydro-benzo[1,4]dioxin-6-ylmethyl)-{2-[5-(4-trifluoromethyl-phenyl)-4H-[1,2,4]triazol-3-yl]-phenyl}-amine]",21%
21,"COc1ccc(Nc2nnc(-c3ccccc3NCc3ccncc3)[nH]2)c(OC)c1 [Compound 114, (2,4-Dimethoxy-phenyl)-(5-{2-[(pyridin-4-ylmethyl)-amino]-phenyl}-4H-[1,2,4]triazol-3-yl)-amine]",24%
22,"CS(=O)(=O)c1ccc(-c2nnc(-c3ccccc3NCC3CCOC3)[nH]2)cc1 (stereo not drawn) [Compound 134, {2-[5-(4-Methanesulfonyl-phenyl)-4H-[1,2,4]triazol-3-yl]-phenyl}-(tetrahydro-furan-3-ylmethyl)-amine]",34%
23,"COc1cc(Nc2ncccc2-c2nnc(Nc3cccc(NCc4ccco4)c3)[nH]2)cc(OC)c1 [Compound 62, N-{5-[2-(3,5-Dimethoxy-phenylamino)-pyridin-3-yl]-4H-[1,2,4]triazol-3-yl}-N′-furan-2-ylmethyl-benzene-1,3-diamine]",73%
24,"COc1cccc(Nc2ncc(-c3ccccc3OCc3cccnc3)o2)c1 [Compound 257, (3-Methoxy-phenyl)-{5-[2-(pyridin-3-ylmethoxy)-phenyl]-oxazol-2-yl}-amine]",27%
25,"COc1cccc(-c2nnc(-c3cccnc3OCc3ccc4c(c3)OCO4)[nH]2)c1 [Compound 110, 2-(Benzo[1,3]dioxol-5-ylmethoxy)-3-[5-(3-methoxy-phenyl)-4H-[1,2,4]triazol-3-yl]-pyridine]",20%
26,"FC(F)(F)c1ccc(-c2nnc(-c3ccccc3NCc3ccc4c(c3)OCO4)[nH]2)cc1 [Compound 138, Benzo[1,3]dioxol-5-ylmethyl-{2-[5-(4-trifluoromethyl-phenyl)-4H-[1,2,4]triazol-3-yl]-phenyl}-amine]",28%
27,"COc1cc(Nc2ncccc2-c2nnc(Nc3cccc(NS(=O)(=O)c4ccc5c(c4)CCO5)c3)[nH]2)cc(OC)c1 [Compound 63, 2,3-Dihydro-benzofuran-5-sulfonic acid (3-{5-[2-(3,5-dimethoxy-phenylamino)-pyridin-3-yl]-4H-[1,2,4]triazol-3-ylamino}-phenyl)-amide]",24%

# Source: patent publication US20090048301A1 (IMCLONE SYSTEMS INCORPORATED, priority 2003, published 2009)
